Activity calls are given as the source filed them. The calls are words filed in the database; no cut-off is given here.
Assays:
[1] = system: Huh-7; assay: Upregulation of CRT expression level in human Huh-7 cells at 2 to 4 uM measured after 48 hrs by Western blot analysis; assay type: functional, cell-based; conditions: dose 2-4 µM
[2] = system: Mitochondrial membrane; assay: Disruption of mitochondrial membrane potential in human Huh-7 cells assessed as appearance of punctate shaped mitochondria at 2 uM measured after 24 hrs by laser scanning confocal microscopic analysis; assay type: cell membranes
[3] = system: Huh-7; assay: Induction of apoptosis in human Huh-7 cells assessed as necrotic cells at 4 uM measured after 48 hrs by Annexin V-PE staining based flow cytometry analysis (reference value: 3.37%); assay type: functional
[4] = system: Huh-7; assay: Induction of ER stress in human Huh-7 cells assessed as increase in GRP78 protein level at 2 to 4 uM incubated for 48 hrs by Western blot analysis; assay type: functional, cell-based; conditions: dose 2-4 µM
[5] = system: Huh-7; assay: Induction of ER stress in human Huh-7 cells assessed as increase in GRP78 protein level at 4 uM incubated for 48 hrs in presence of 4pba by Western blot analysis; assay type: functional, cell-based
[6] = system: Huh-7; assay: Induction of morphological change in human Huh-7 cells assessed as membrane wrinkling at 2 to 4 uM measured after 48 hrs by HE staining based microscopic analysis; assay type: functional, cell-based; conditions: dose 2-4 µM
[7] = system: Huh-7; assay: Induction of morphological change in human Huh-7 cells assessed as nuclear pyknosis at 2 to 4 uM measured after 48 hrs by HE staining based microscopic analysis; assay type: functional, cell-based; conditions: dose 2-4 µM
[8] = system: Huh-7; assay: Induction of ER stress in human Huh-7 cells assessed as increase in calcium ion content by measuring fluorescence intensity at 4 uM incubated for 24 hrs in presence of […] by fluorescence microscopy based analysis; assay type: functional, cell-based
[9] = system: Huh-7; assay: Induction of apoptosis in human Huh-7 cells assessed as late apoptotic cells at 2 uM measured after 48 hrs by Annexin V-PE staining based flow cytometry analysis (reference value: 2.06%); assay type: functional
[10] = system: Huh-7; assay: Upregulation of Bax protein level in human Huh-7 cells at 2 to 4 uM by Western blot analysis; assay type: functional, cell-based; conditions: dose 2-4 µM
[11] = system: Huh-7; assay: Induction of apoptosis in human Huh-7 cells assessed as late apoptotic cells at 8 uM measured after 48 hrs in presence of Z-VAD by Annexin V-PE staining based flow cytometry analysis (reference value: 2.06%); assay type: functional
[12] = system: Huh-7; assay: Induction of apoptosis in human Huh-7 cells assessed as viable cells at 8 uM measured after 48 hrs by Annexin V-PE staining based flow cytometry analysis (reference value: 93.69%); assay type: functional; conditions: read-out: Activity
[13] = system: Huh-7; assay: Induction of ER damage in human Huh-7 cells assessed as decrease in glycoprotein content at 2 to 4 uM incubated for 48 hrs by ELISA method; assay type: functional, cell-based; conditions: dose 2-4 µM
[14] = system: Huh-7; assay: Induction of ER stress in human Huh-7 cells assessed as increase in calcium ion content by measuring fluorescence intensity at 4 uM incubated for 24 hrs by fluorescence microscopy based analysis; assay type: functional, cell-based
[15] = system: Huh-7; assay: Induction of apoptosis in human Huh-7 cells assessed as late apoptotic cells at 4 uM measured after 48 hrs by Annexin V-PE staining based flow cytometry analysis (reference value: 2.06%); assay type: functional
[16] = system: Huh-7; assay: Upregulation of BAK protein level in human Huh-7 cells at 2 to 4 uM by Western blot analysis; assay type: functional, cell-based; conditions: dose 2-4 µM
[17] = system: Huh-7; assay: Induction of apoptosis in human Huh-7 cells assessed as necrotic cells at 2 uM measured after 48 hrs by Annexin V-PE staining based flow cytometry analysis (reference value: 3.37%); assay type: functional
[18] = system: Huh-7; assay: Induction of ER stress in human Huh-7 cells assessed as increase in IRE1 protein level at 4 uM incubated for 48 hrs in presence of 4pba by Western blot analysis; assay type: functional, cell-based
[19] = system: Huh-7; assay: Induction of apoptosis in human Huh-7 cells assessed as late apoptotic cells at 8 uM measured after 48 hrs by Annexin V-PE staining based flow cytometry analysis (reference value: 2.06%); assay type: functional
[20] = system: Huh-7; assay: Induction of apoptosis in human Huh-7 cells assessed as viable cells at 2 uM measured after 48 hrs by Annexin V-PE staining based flow cytometry analysis (reference value: 93.69%); assay type: functional; conditions: read-out: Activity
[21] = system: Huh-7; assay: Induction of ER damage in human Huh-7 cells assessed as decrease in protein-disulfide bond content at 2 to 4 uM incubated for 48 hrs by absorbance based analysis; assay type: functional, cell-based; conditions: dose 2-4 µM
[22] = system: Huh-7; assay: Induction of apoptosis in human Huh-7 cells assessed as early apoptotic cells at 8 uM measured after 48 hrs by Annexin V-PE staining based flow cytometry analysis (reference value: 0.88%); assay type: functional
[23] = system: Huh-7; assay: Antiproliferative activity against human Huh-7 cells measured after 48 hrs by MTT assay; assay type: functional, cell-based; conditions: Huh-7, 48 h
[24] = system: Huh-7; assay: Induction of ER stress in human Huh-7 cells assessed as increase in ATF6 protein level at 4 uM incubated for 48 hrs in presence of 4pba by Western blot analysis; assay type: functional, cell-based
[25] = system: Huh-7; assay: Upregulation of Cytochrome C level in human Huh-7 cells at 2 to 4 uM by Western blot analysis; assay type: functional, cell-based; conditions: dose 2-4 µM
[26] = system: MDA-MB-231; assay: Antiproliferative activity against human MDA-MB-231 cells measured after 48 hrs by MTT assay; assay type: functional, cell-based; conditions: MDA-MB-231, 48 h
[27] = system: Huh-7; assay: Induction of morphological change in human Huh-7 cells assessed as decrease in number of cells at 2 to 4 uM measured after 48 hrs by HE staining based microscopic analysis; assay type: functional, cell-based; conditions: dose 2-4 µM
[28] = system: Huh-7; assay: Induction of apoptosis in human Huh-7 cells assessed as viable cells at 4 uM measured after 48 hrs by Annexin V-PE staining based flow cytometry analysis (reference value: 93.69%); assay type: functional; conditions: read-out: Activity
[29] = system: Huh-7; assay: Induction of apoptosis in human Huh-7 cells assessed as early apoptotic cells at 8 uM measured after 48 hrs in presence of Z-VAD by Annexin V-PE staining based flow cytometry analysis (reference value: 0.88%); assay type: functional
[30] = system: Huh-7; assay: Induction of morphological change in human Huh-7 cells assessed as nuclear edge aggregation at 2 to 4 uM measured after 48 hrs by HE staining based microscopic analysis; assay type: functional, cell-based; conditions: dose 2-4 µM
[31] = system: Huh-7; assay: Induction of ER stress in human Huh-7 cells assessed as increase in ATF6 protein level at 2 to 4 uM incubated for 48 hrs by Western blot analysis; assay type: functional, cell-based; conditions: dose 2-4 µM
[32] = system: Huh-7; assay: Induction of mitochondrial ROS release in human Huh-7 cells at 2 uM measured after 24 hrs by fluorescent microscopic analysis; assay type: functional, cell-based
[33] = system: Huh-7; assay: Induction of apoptosis in human Huh-7 cells assessed as necrotic cells at 8 uM measured after 48 hrs by Annexin V-PE staining based flow cytometry analysis (reference value: 3.37%); assay type: functional
[34] = system: A549; assay: Antiproliferative activity against human A549 cells measured after 48 hrs by MTT assay; assay type: functional, cell-based; conditions: A549, 48 h
[35] = Drug localization in endoplasmic reticulum of human Huh-7 cells assessed as colocalization at 100 uM measured within 1 hr by fluorescence based analysis; assay type: ADME, subcellular; conditions: huh-7, 1 h
[36] = system: Huh-7; assay: Induction of apoptosis in human Huh-7 cells assessed as viable cells at 8 uM measured after 48 hrs in presence of Z-VAD by Annexin V-PE staining based flow cytometry analysis (reference value: 93.69%); assay type: functional; conditions: read-out: Activity
[37] = system: Huh-7; assay: Induction of ER stress in human Huh-7 cells assessed as increase in IRE1 protein level at 2 to 4 uM incubated for 48 hrs by Western blot analysis; assay type: functional, cell-based; conditions: dose 2-4 µM

For `COc1ccc(COc2cccc3c2C(=O)c2c(OCc4ccc(OC)cc4)cc(C(=O)NCCNCCO)cc2C3=O)cc1`, the Activity [1] was “Active”, the Activity [2] was “Active” and the Activity [3] was 8.55%. For the same molecule, the Activity [4] was “Active”, the Activity [5] was “inactive” and the Activity [6] was “Active”. For the same molecule, the Activity [7] was “Active”, the Activity [8] was “inactive” and the Activity [9] was 4.4%. The Activity [10] was “Active”, the Activity [11] was 4.41% and the viability at 8 µM [12] was 23.7%. For the same molecule, the Activity [13] was “Active”, the Activity [14] was “Active” and the Activity [15] was 7.59%. For the same molecule, the Activity [16] was “Active”, the Activity [17] was 6.06% and the Activity [18] was “inactive”. For the same molecule, the Activity [19] was 6.32%, the viability at 2 µM [20] was 24.1% and the Activity [21] was “Active”. For the same molecule, the Activity [22] was 68.79%, the IC50 [23] was 1750 nM and the Activity [24] was “inactive”. For the same molecule, the Activity [25] was “Active”, the IC50 [26] was 600 nM and the Activity [27] was “Active”. The viability at 4 µM [28] was 40.2%, the Activity [29] was 16.45% and the Activity [30] was “Active”. The Activity [31] was “Active”, the Activity [32] was “Active” and the Activity [33] was 1.2%. The IC50 [34] was 2580 nM, the Drug uptake [35] was “Active” and the viability at 8 µM [36] was 68.5%. For the same molecule, the Activity [37] was “Active”.

Source: ChEMBL document CHEMBL6087405, “Discovery and optimization of anthraquinone derivatives containing substituted bisbenzyloxy groups as a novel scaffold damaged endoplasmic reticulum and against hepatocellular carcinoma cells” (Bioorg Med Chem, 2024)
